Results published in article PMC3741113, “De-Novo Design of Antimicrobial Peptides for Plant Protection” (PLoS ONE, 2013).
Like-named read-outs stand apart in the source and are kept apart here. Ends that are not written are not given here.

Assays:
[1] = system: Clavibacter michiganensis ssp. michiganensis; details: LB-medium, 27°C
[2] = system: Pectobacterium carotovorum ssp. carotovorum; details: LB-medium, 27°C
[3] = system: Botrytis cinerea; details: 2% malt extract medium, 1.5–2×10^3 spores/ml, room temperature, 3d, visual screening; lowest concentration with no visible growth; at least two independent replicates
[4] = system: Cladosporium herbarum; details: 2% malt extract medium, 1.5–2×10^3 spores/ml, room temperature, 3d, visual screening; lowest concentration with no visible growth; at least two independent replicates
[5] = system: Pseudomonas corrugata; details: LB-medium, 27°C
[6] = system: Alternaria alternata; details: 2% malt extract medium, 1.5–2×10^3 spores/ml, room temperature, 3d, OD590 nm; lowest concentration with no visible growth; at least two independent replicates
[7] = system: Xanthomonas vesicatoria; details: LB-medium, 27°C
[8] = system: Pseudomonas syringae pv. tomato; details: LB-medium, 27°C
[9] = system: Pseudomonas syringae pv. syringae; details: LB-medium, 27°C
[10] = about 10^5 CFU/ml, 1–2d, OD590 nm, at least two independent replicates

Row | Substance | MIC [1, 10] [µg/mL] | MIC [2, 10] [µg/mL] | MIC [3] [µg/mL] | MIC [4] [µg/mL] | MIC [5, 10] [µg/mL] | MIC [6] [µg/mL] | MIC [7, 10] [µg/mL] | MIC [8, 10] [µg/mL] | MIC [9, 10] [µg/mL] | MIC ([8]; Table 4, incubation period 1d) [µg/mL] | MIC ([1]; Table 4, incubation period 2d) [µg/mL] | MIC ([2]; Table 4, incubation period 1d) [µg/mL] | MIC ([5]; Table 4, incubation period 2d) [µg/mL] | MIC ([9]; Table 4, incubation period 1d) [µg/mL] | MIC ([7]; Table 4, incubation period 2d) [µg/mL]
1 | LLIKFLKRFIKH-NH2 [SP7-D] | 5 | 40 | 20 | 5 | 5 | 5 | 10 |  |  |  |  |  |  |  | 
2 | KKKAARALKRAL-NH2 [SP4] | 40 | >40 | >100 | 40 | >40 | >100 | >40 | 10 | >40 |  |  |  |  |  | 
3 | LRALAKALKHKL-NH2 [SP11] | >40 | >40 | >100 | 20 | 10 | >100 | >40 | 5 | >40 |  |  |  |  |  | 
4 | RKKRLKLLKR LV-NH2 [SP1-D] | 40 | > 40 | > 40 | 20 | 20 | 20 | 40 | 5 | 5 |  |  |  |  |  | 
5 | KRRLAAFRAFRGALKSVLKK-NH2 [SP16] | 5 | >40 | >100 | 20 | 2.5 | >100 | 5 | 5 | 5 |  |  |  |  |  | 
6 | LLKALKKLLKKLL-NH2 [SP9] | 10 | >40 | >100 | 40 | >40 | >100 | 5 | 10 | 10 |  |  |  |  |  | 
7 | KRRLALFRLFRLALKLVLKK-NH2 [SP13-11] |  |  |  |  |  |  |  |  |  | 2.5 | 2.5 | >10 | >10 | >10 | 2.5
8 | KRRLILRILRLAIRALVKKR-NH2 [SP13-2] |  |  |  |  |  |  |  |  |  | 10 | 0.25 | >10 | 5.0 | 5.0 | 0.25
9 | RKKKKKIIKKLI-NH2 [SP1-21] |  |  |  |  |  |  |  |  |  | 2.5 | >10 | >10 | 2.5 | 0.5 | >10
10 | KRRLALFRAFRLALKSVLKK-NH2 [SP13-10] |  |  |  |  |  |  |  |  |  | 1.0 | 0.1 | >10 | 0.25 | >10 | 0.1
11 | RKKKFKFFKRFF-NH2 [SP1-13] |  |  |  |  |  |  |  |  |  | 2.5 | 0.25 | >10 | <0.1 | 0.1 | 0.5
12 | RKKKVKLLKRLV-NH2 [SP1-3] |  |  |  |  |  |  |  |  |  | 5.0 | >10 | >10 | 2.5 | 0.25 | >10
13 | KRKKLLKRLL-NH2 [SP1-15] |  |  |  |  |  |  |  |  |  | 1.0 | 5.0 | >10 | <0.1 | 0.1 | 5.0
14 | LRFLKKILKHLF-NH2 [SP10] |  |  | >100 | 10 |  | >100 |  |  |  |  |  |  |  |  | 
15 | LRFLRRILRRLL-NH2 [SP10-8] |  |  |  |  |  |  |  |  |  | 1.0 | 0.5 | 2.5 | 0.5 | 0.5 | 0.5
16 | RKKKFKFFKRLF-NH2 [SP1-12] |  |  |  |  |  |  |  |  |  | >10 | 0.5 | >10 | 0.25 | 0.1 | 0.5
17 | KRRLIARILRLAARALVKKR-NH2 [SP13] |  |  | >100 | 20 |  | >100 |  |  |  |  |  |  |  |  | 
18 | KRRKLIKILKLIIKLIRKKR-NH2 [SP13-6] |  |  |  |  |  |  |  |  |  | 2.5 | 0.1 | >10 | 2.5 | 1.0 | 0.1
19 | KRRLIFRILKLFFRFLVKKR-NH2 [SP13-4] |  |  |  |  |  |  |  |  |  | >10 | 1.0 | >10 | 5.0 | 10 | 2.5
20 | KRKKLLKRLI-NH2 [SP1-16] |  |  |  |  |  |  |  |  |  | 1.0 | >10 | >10 | 0.5 | 0.1 | 10
21 | LRFIKKILKKLI-NH2 [SP10-4] |  |  |  |  |  |  |  |  |  | 1.0 | 0.25 | 2.5 | 2.5 | 0.25 | 0.1
22 | LRFAKKALKKLF-NH2 [SP10-3] |  |  |  |  |  |  |  |  |  | 0.25 | 2.5 | >10 | 1.0 | 0.25 | 2.5
23 | KRKLTLVFGVMAGVIGTKKR-NH2 [SP14] | 20 | >40 | >100 | 100 | >40 | >100 | >40 | 40 | >40 |  |  |  |  |  | 
24 | LRKAKKIAKKLF-NH2 [SP10-11] |  |  |  |  |  |  |  |  |  | 0.5 | 5.0 | >10 | 0.5 | 0.1 | 0.5
25 | LRFARRALRRLF-NH2 [SP10-9] |  |  |  |  |  |  |  |  |  | 0.25 | 1.0 | 2.5 | 0.5 | 0.25 | 1.0
26 | KRRLIARILRLAIRALVKKR-NH2 [SP13-1] |  |  |  |  |  |  |  |  |  | 1.0 | 0.5 | >10 | 2.5 | 1.0 | 0.5
27 | RKKRKKLLKRLL-NH2 [SP1-18] |  |  |  |  |  |  |  |  |  | 1.0 | 5.0 | >10 | 0.25 | 0.1 | 5.0
28 | KRRLFLFRLFRLFLRLFLKK-NH2 [SP13-12] |  |  |  |  |  |  |  |  |  | 5.0 | 2.5 | >10 | 10 | >10 | 2.5
